Like-named read-outs stand apart in the source and are kept apart here. Positions of bridges follow the written chain, without caps; N, C: chain ends. Non-standard residues stand in square brackets, D forms with d. Residues, ends and D or L forms follow the SMILES beside them. Thz = O=C(O)[C@@H]1CSCN1
What was measured:
human MC4R [1] = molecular target: T1, human MC4R (Homo sapiens, UniProt P32245); experiment: 125NDP-α-MSH competitive binding to membranes of BHK cells expressing human MC4 receptor (filtration assay)
T1 construct: expressed in transfected cells
T1 sequence (P32245 whole entry): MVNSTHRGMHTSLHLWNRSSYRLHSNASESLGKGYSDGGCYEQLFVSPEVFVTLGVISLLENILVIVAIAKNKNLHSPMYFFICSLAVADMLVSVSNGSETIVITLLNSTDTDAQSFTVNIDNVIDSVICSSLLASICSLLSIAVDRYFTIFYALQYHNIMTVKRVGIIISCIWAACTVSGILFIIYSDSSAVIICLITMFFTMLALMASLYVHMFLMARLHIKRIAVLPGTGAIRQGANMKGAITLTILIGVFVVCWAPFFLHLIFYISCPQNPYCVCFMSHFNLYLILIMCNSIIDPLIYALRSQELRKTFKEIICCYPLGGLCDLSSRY
Method in brief: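 Displacement of ^125NDP-α-MSH (apx. […] final) was measured by filtration after 2 h at 25 °C, using diluted membranes of stably transfected BHK cells in pH 7.0 HEPES buffer. Compounds spanned 1 μM to 0.001 nM; binding curves were analysed by non-linear regression.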

human MC4R [2] = molecular target: T1, human MC4R; experiment: Functional cAMP assay (CisBio HTRF) in BHK cells expressing human MC4R; assay type: cell-based; conditions: for MC1R/MC4R cAMP EC50 ratio: MC1R cAMP EC50 divided by MC4R cAMP EC50
Method in brief: (§1)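 Stably transfected BHK cells expressing human MC1R or MC4R; cAMP quantified by HTRF (cAMP-d2/cryptate) after 30 min compound stimulation at 25 °C in DMEM-based buffer with 1 mM IBMX. Compounds were prepared as 10-fold serial dilutions starting at 2 μM (working solution, 2× final). Readout after 1 h at 25 °C; non-linear regression.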

[3] = In vivo acute food intake model (BioDAQ) in C57BL/6J male mice; conditions: single subcutaneous dose 1 mg/kg, cumulative food intake
Method: The MC4R system is central to appetite regulation and agonists are known inhibit food intake. In order to screen compounds in a relevant in vivo model, efficacy was assessed by determining the effect of the compound on reducing food intake acutely in mice.
All animal protocols were approved by an Institutional Animal Care and Use Committee and Ethical Review Committee of Novo Nordisk. Animals were housed according to Novo Nordisk rodent housing standards, and were given ad libitum access to food and water under controlled lighting (12 h:12 h light/dark cycle; lights off 11:00-23:00), temperature (23±2° C.) and relative humidity (50±20%) conditions. For each acute food intake study C57BL/6J male mice (25-30 grams body weight) were acclimated for two weeks to the appropriate light cycle and to single-housing (one mouse per cage) in cages linked to a BioDAQ automated food intake system (Research Diets Inc., New Brunswick, N.J. USA). The animals were also acclimated to new food (Research Diets 12450B, 10% kcal fat) during this time.
The BioDAQ is a computer automated scientific instrument for Biological Data Acquisition of food intake in rodents and measures food intake from each cage every 15 minutes. A total of 32 animals can be accommodated in the system per study, therefore, animals were randomized into 4 groups of n=8 for each study. […] Animals were fasted ˜4 hr prior to dosing. Vehicle (10 mM phosphate; 140 mM sodium chloride) or compound was dosed at a volume of 10 ml per kg subcutaneously approximately 20 minutes prior to the start of the dark cycle (compound chem no. and dosages are indicated in table 2 below). After dosing, food intake was recorded for approximately 24 hours.
The inhibitory effect of compounds on food intake was generally well-correlated with in vitro binding affinity on the human MC4 receptor and with plasma stability of the compound. Most studies were conducted as dose response studies with vehicle and the compound at 3 doses (0.3, 1 and 3 mg/kg). Some studies were done for the purpose of dose-range finding, while others were done to comparatively assess the effect of 3 compounds at the same dose. Maximal effects on food intake occurred within the first 1-5 hours post-dose. The comparative effect of compounds across studies on food intake was assessed by normalizing measurements as % effect on cumulative food intake after a single subcutaneous dose, relative to vehicle. Results are reported in Table 2 as % effect on food intake at 3 hours post dose.

human MC1R = molecular target: T2, human MC1R (Homo sapiens, UniProt Q01726); experiment: Functional cAMP assay (CisBio HTRF) in BHK cells expressing human MC1R; assay type: cell-based
T2 construct: expressed in transfected cells
T2 sequence (Q01726 whole entry): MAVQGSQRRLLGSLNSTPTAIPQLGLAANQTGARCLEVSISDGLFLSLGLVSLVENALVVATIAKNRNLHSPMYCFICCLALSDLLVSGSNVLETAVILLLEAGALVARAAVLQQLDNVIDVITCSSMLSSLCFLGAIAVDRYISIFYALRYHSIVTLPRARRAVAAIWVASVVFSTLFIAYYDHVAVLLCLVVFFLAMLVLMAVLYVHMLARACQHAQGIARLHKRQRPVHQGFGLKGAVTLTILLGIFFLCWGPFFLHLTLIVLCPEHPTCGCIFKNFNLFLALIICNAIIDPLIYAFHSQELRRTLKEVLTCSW
Method in brief: as §1

Ki (human MC4R [1]; human MC4R, BHK cell membranes, 125NDP-α-MSH radioligand, read-out: MC4R binding Ki) [pM]	EC50 (human MC4R [2]; BHK cells expressing human MC4R, '>' = highest dose used with no response, read-out: MC4R cAMP EC50) [pM]	Compound	Ki (human MC4R [1]) [pM]	EC50 (human MC4R [2]) [pM]	MC1R/MC4R cAMP EC50 ratio (human MC4R [2])	% Effect on food intake at 3 hours post dose, relative to vehicle [3] [%]	EC50 (human MC1R) [pM]
		C[C@@H]1NC(=O)[C@@H]2CSSC[C@H](NC(=O)[C@H](Cc3c[nH]c4ccccc34)NC(=O)[C@H](CCCCN)NC(=O)[C@H](CCCCN)NC(=O)[C@H](CCCCN)NC1=O)C(=O)N1CSC[C@H]1C(=O)N[C@@H](Cc1c[nH]cn1)C(=O)N[C@H](Cc1ccccc1)C(=O)N[C@@H](Cc1c[nH]cn1)C(=O)N[C@@H](Cc1c[nH]c3ccccc13)C(=O)N2 [Chem. 81, c[c[Cys-THAZ-His-D-Phe-His-Trp- Cys]-Ala-Lys-Lys-Lys-Trp]] (cyclo(AKKKWC[Thz]H[dF]HWC); disulfide 6-12)	30	70	957	−72 ± 7	
40	40	C[C@@H]1NC(=O)[C@@H]2CSSC[C@H](NC(=O)[C@H](CCCNC(=N)N)NC(=O)[C@H](CCCCN)NC(=O)[C@H](CCCCN)NC(=O)[C@H](Cc3c[nH]cn3)NC1=O)C(=O)N1CCC[C@H]1C(=O)N[C@@H](Cc1c[nH]cn1)C(=O)N[C@H](Cc1ccccc1)C(=O)N[C@@H](Cc1c[nH]cn1)C(=O)N[C@@H](Cc1c[nH]c3ccccc13)C(=O)N2 [Chem. 96, c[c[Cys-Pro-His-D-Phe-His-Trp-Cys]- Ala-His-Lys-Lys-Arg]] (cyclo(AHKKRCPH[dF]HWC); disulfide 6-12)			1442	−17 ± 14	
		C[C@@H]1NC(=O)[C@H](CCCCN)NC(=O)[C@H](CCCCN)NC(=O)[C@H](C)NC(=O)[C@@H]2CSSC[C@H](NC(=O)[C@H](Cc3c[nH]c4ccccc34)NC1=O)C(=O)N1CSC[C@H]1C(=O)N[C@@H](Cc1c[nH]cn1)C(=O)N[C@H](Cc1ccccc1)C(=O)N[C@@H](Cc1c[nH]cn1)C(=O)N[C@@H](Cc1c[nH]c3ccccc13)C(=O)N2 [Chem. 110, c[c[Cys-THAZ-His-D-Phe-His-Trp- Cys]-Ala-Lys-Lys-Ala-Trp]] (cyclo(AKKAWC[Thz]H[dF]HWC); disulfide 6-12)	90	50	1266	−26 ± 15	
		C[C@@H]1NC(=O)[C@@H]2CSSC[C@H](NC(=O)[C@H](Cc3c[nH]c4ccccc34)NC(=O)[C@H](CCCNC(=N)N)NC(=O)[C@@H](Cc3ccccc3)NC(=O)[C@H](Cc3c[nH]cn3)NC1=O)C(=O)N[C@@H](C)C(=O)N[C@@H](Cc1c[nH]cn1)C(=O)N[C@H](Cc1ccccc1)C(=O)N[C@@H](CCCNC(=N)N)C(=O)N[C@@H](Cc1c[nH]c3ccccc13)C(=O)N2 [Chem. 111, c[c[Cys-Ala-His-D-Phe-Arg-Trp-Cys]- Ala-His-D-Phe-Arg-Trp]]	40	10	31	−63 ± 4	310
